From patent publication US20230065745A1, “PIPERIDINE-2,6-DIONE DERIVATIVES WHICH BIND TO CEREBLON, AND METHODS OF USE THEREOF” (Captor Therapeutics S.A., priority 2019, published 2023)

Legend:
[1] = tested on: IKZF3; test: IKZF3 degradation assay, H929 cell line (Western blot densitometry); assay type: cell-based; details: 24 h
Method: (§1) Cells were seeded on 6- or 12-well plates, and the compounds to be tested were added at the desired concentration range. […] After 24 h incubation (3TC, 5% CO2), cells were harvested, washed and cell lysates were prepared using RIPA lysis buffer. The amount of protein was determined via BCA assay, and the appropriate quantity was then loaded on the precast gel for the protein separation. After primary and secondary Ab staining, the membranes were washed and signals developed. The densitometry analysis was implemented to obtain the numeric values used later in the protein level evaluation process.
(§2) The treatment with all compounds was carried out for 24 h.
(§3) Densitometry values are normalized to the loading control ((3-ACTIN) and presented as % of DMSO control, using the following labels: […]

[2] = tested on: CK1α; test: CK1α degradation assay, Kelly cell line (Western blot densitometry); assay type: cell-based; details: 24 h
Method: as §1, with “6-well” for “6- or 12-well”, “(37° C.,” for “(3TC,”, “were” for “were harvested,”
as §2, §3

[3] = tested on: IKZF1; test: IKZF1 degradation assay, H929 cell line (Western blot densitometry); assay type: cell-based; details: for % of IKZF1 protein reduction, based on densitometry values: 24 h
Method: Cells were seeded on 6- or 12-well plates, and the compounds to be tested were added at the desired concentration range. […] After 6 or 24 h incubation (3TC, 5% CO2), cells were harvested, washed and cell lysates were prepared using RIPA lysis buffer. The amount of protein was determined via BCA assay, and the appropriate quantity was then loaded on the precast gel for the protein separation. After primary and secondary Ab staining, the membranes were washed and signals developed. The densitometry analysis was implemented to obtain the numeric values used later in the protein level evaluation process. […] The treatment with all compounds was carried out for 24 h.

[4] = biological target: CRBN-DDB1 protein complex (Homo sapiens, UniProt Q96SW2); test: Fluorescence Polarization (FP) assay, displacement of Cy5-labelled thalidomide; details: 25 nM CRBN-DDB1, 5 nM Cy5-labelled thalidomide, read-out: CRBN binding Ki
Method: CRBN-DDB1 protein complex was mixed with Cy5-labelled thalidomide and a compound to be tested (the “test compound”). […] The test solution was added to a 384-well assay plate.
The plate was spun-down (1 min, 1000 rpm, 22° C.) and then shaken using a VibroTurbulator for 10 min at room temperature (20-25° C.), with the frequency set to level 3. The assay plate with protein and the tracer was incubated for 60 min at room temperature (20-25° C.) prior to read-out with a plate reader.
The FP experiment was carried out with various concentrations of the test compounds in order to measure Ki values.

CRBN-DDB1 protein complex, sequence (Q96SW2 whole entry): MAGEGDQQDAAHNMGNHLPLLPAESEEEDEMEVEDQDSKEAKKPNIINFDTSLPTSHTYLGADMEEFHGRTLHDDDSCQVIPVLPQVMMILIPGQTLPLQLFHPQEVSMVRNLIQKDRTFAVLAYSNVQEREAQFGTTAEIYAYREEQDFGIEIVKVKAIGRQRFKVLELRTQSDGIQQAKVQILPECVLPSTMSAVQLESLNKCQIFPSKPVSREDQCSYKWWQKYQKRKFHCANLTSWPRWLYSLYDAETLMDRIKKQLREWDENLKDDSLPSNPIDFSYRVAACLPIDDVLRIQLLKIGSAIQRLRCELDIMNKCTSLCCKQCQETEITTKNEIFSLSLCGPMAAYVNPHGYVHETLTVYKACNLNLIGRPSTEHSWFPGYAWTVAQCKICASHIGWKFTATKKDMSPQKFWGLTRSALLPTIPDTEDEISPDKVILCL
CRBN-DDB1 protein complex, sequence (Q16531 whole entry partner): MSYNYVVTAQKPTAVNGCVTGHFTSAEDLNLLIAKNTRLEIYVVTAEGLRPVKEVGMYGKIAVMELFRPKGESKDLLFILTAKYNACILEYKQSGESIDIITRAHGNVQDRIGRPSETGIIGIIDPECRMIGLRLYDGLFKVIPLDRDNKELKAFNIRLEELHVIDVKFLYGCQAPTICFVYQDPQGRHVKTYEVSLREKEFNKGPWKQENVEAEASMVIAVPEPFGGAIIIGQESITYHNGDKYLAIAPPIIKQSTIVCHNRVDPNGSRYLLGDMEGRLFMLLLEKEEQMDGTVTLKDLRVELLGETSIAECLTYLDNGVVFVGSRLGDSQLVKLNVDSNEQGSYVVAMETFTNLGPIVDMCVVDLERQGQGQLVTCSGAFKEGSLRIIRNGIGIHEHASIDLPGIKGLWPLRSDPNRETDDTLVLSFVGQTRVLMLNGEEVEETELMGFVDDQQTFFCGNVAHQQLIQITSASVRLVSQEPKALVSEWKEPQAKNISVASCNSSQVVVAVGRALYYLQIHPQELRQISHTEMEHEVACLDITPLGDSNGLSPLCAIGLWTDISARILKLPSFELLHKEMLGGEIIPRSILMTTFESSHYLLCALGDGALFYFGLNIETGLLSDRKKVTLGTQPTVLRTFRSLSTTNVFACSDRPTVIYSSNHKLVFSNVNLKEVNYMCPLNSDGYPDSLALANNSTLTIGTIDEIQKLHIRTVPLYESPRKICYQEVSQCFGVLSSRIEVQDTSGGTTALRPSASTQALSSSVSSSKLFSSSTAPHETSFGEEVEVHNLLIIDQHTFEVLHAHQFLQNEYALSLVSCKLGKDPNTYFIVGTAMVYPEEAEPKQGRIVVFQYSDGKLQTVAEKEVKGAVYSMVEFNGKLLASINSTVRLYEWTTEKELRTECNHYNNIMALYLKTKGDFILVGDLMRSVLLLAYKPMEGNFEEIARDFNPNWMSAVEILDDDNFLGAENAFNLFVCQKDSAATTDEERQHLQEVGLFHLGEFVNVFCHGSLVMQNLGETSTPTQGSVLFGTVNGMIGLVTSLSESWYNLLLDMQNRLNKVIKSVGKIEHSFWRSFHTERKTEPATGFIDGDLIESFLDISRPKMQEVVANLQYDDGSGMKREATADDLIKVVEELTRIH

Compound | Ki [4] | % of IKZF1 protein reduction, IKZF 1 (24 H, 20 μM) [3] | further results
Cc1nc2cccc(N)c2c(=O)n1C1CCC(=O)NC1=O (stereo not shown) [CC-122, reference compound] |  |  | % of IKZF3 protein reduction, based on densitometry values ([1]; 1 μM): ≥75% (≥75% for 75-100% of IKZF3 protein reduction); % of IKZF3 protein reduction, based on densitometry values ([1]; 10 μM): ≥75% (≥75% for 75-100% of IKZF3 protein reduction); % of CK1α protein reduction, based on densitometry values ([2]; 1 μM): ≤25% (≤25% for 0-25% of CK1α protein reduction); % of CK1α protein reduction, based on densitometry values ([2]; 10 μM): ≤25% (≤25% for 0-25% of CK1α protein reduction); % of CK1α protein reduction, based on densitometry values ([2]; 20 μM): ≤25% (≤25% for 0-25% of CK1α protein reduction); CK1α degradation (in words) [2]: lack of degradation; % of IKZF1 protein reduction, based on densitometry values ([3]; 1 μM): ≥75% (≥75% for 75-100% of IKZF1 protein reduction); % of IKZF1 protein reduction, based on densitometry values ([3]; 10 μM): ≥75% (≥75% for 75-100% of IKZF1 protein reduction)
COc1sccc1C(=O)NC1CCC(=O)NC1=O (stereo not shown) [Compound 20, N-(2,6-dioxopiperidin-3-yl)-2-methoxythiophene-3-carboxamide] | < 5 µM | ≤25% (≤25% for 0-25% of IKZF1 protein reduction) | % of IKZF3 protein reduction, based on densitometry values ([1]; 1 μM): ≤25% (≤25% for 0-25% of IKZF3 protein reduction); % of IKZF3 protein reduction, based on densitometry values ([1]; 10 μM): ≤25% (≤25% for 0-25% of IKZF3 protein reduction); % of IKZF1 protein reduction, based on densitometry values ([3]; 1 μM): ≤25% (≤25% for 0-25% of IKZF1 protein reduction); % of IKZF1 protein reduction, based on densitometry values ([3]; 10 μM): ≤25% (≤25% for 0-25% of IKZF1 protein reduction)
COc1sccc1C(=O)N[C@H]1CCC(=O)NC1=O [Compound 21, (S)—N-(2,6-dioxopiperidin-3-yl)-2-methoxythiophene-3-carboxamide] | < 5 µM | ≤25% (≤25% for 0-25% of IKZF1 protein reduction) | % of CK1α protein reduction, based on densitometry values ([2]; 20 μM): >25% (>25% for 26-74% of CK1α protein reduction)
COc1sccc1C(=O)N[C@@H]1CCC(=O)NC1=O [Compound 22, (R)—N-(2,6-dioxopiperidin-3-yl)-2-methoxythiophene-3-carboxamide] | 10 to 50 µM | ≤25% (≤25% for 0-25% of IKZF1 protein reduction) | % of CK1α protein reduction, based on densitometry values ([2]; 20 μM): >25% (>25% for 26-74% of CK1α protein reduction)
Nc1sccc1C(=O)NC1CCC(=O)NC1=O (stereo not shown) [Compound 36, 2-amino-N-(2,6-dioxopiperidin-3-yl)thiophene-3-carboxamide] | < 5 µM | ≤25% (≤25% for 0-25% of IKZF1 protein reduction) | 
COc1sc(Cl)cc1C(=O)NC1CCC(=O)NC1=O (stereo not shown) [Compound 37, 5-chloro-N-(2,6-dioxopiperidin-3-yl)-2-methoxythiophene-3-carboxamide] | < 5 µM | ≤25% (≤25% for 0-25% of IKZF1 protein reduction) | 
Nc1sc(Cl)cc1C(=O)NC1CCC(=O)NC1=O (stereo not shown) [Compound 40, 2-amino-5-chloro-N-(2,6-dioxopiperidin-3-yl)thiophene-3-carboxamide] | < 5 µM | ≤25% (≤25% for 0-25% of IKZF1 protein reduction) | 
CC(=O)Nc1sc(C(F)(F)F)cc1C(=O)NC1CCC(=O)NC1=O (stereo not shown) [Compound 42, N-(2,6-dioxopiperidin-3-yl)-2-acetamido-5-(trifluoromethyl)thiophene-3-carboxamide] | 5 to 10 µM | ≤25% (≤25% for 0-25% of IKZF1 protein reduction) | 
CC(=O)Nc1scc(Cl)c1C(=O)NC1CCC(=O)NC1=O (stereo not shown) [Compound 43, 4-chloro-N-(2,6-dioxopiperidin-3-yl)-2-acetamidothiophene-3-carboxamide] | 10 to 50 µM | ≤25% (≤25% for 0-25% of IKZF1 protein reduction) | 
CC(=O)Nc1sc(C2CC2)cc1C(=O)NC1CCC(=O)NC1=O (stereo not shown) [Compound 44, 5-cyclopropyl-N-(2,6-dioxopiperidin-3-yl)-2-acetamidothiophene-3-carboxamide] | < 5 µM | ≤25% (≤25% for 0-25% of IKZF1 protein reduction) | 
O=C1CCC(NC(=O)c2cc(Cl)sc2NC(=O)Cc2ccccc2)C(=O)N1 (stereo not shown) [Compound 46, 5-chloro-N-(2,6-dioxopiperidin-3-yl)-2-(2-phenylacetamido)thiophene-3-carboxamide] | 5 to 10 µM | ≤25% (≤25% for 0-25% of IKZF1 protein reduction) | 
COc1cscc1C(=O)NC1CCC(=O)NC1=O (stereo not shown) [Compound 54, N-(2,6-dioxopiperidin-3-yl)-4-methoxythiophene-3-carboxamide] | < 5 µM |  | % of CK1α protein reduction, based on densitometry values ([2]; 1 μM): >25% (>25% for 26-74% of CK1α protein reduction); % of CK1α protein reduction, based on densitometry values ([2]; 10 μM): >25% (>25% for 26-74% of CK1α protein reduction); % of CK1α protein reduction, based on densitometry values ([2]; 20 μM): >25% (>25% for 26-74% of CK1α protein reduction)
O=C1CCC(NC(=O)c2csc(-c3ccccc3)c2)C(=O)N1 (stereo not shown) [Compound 57, N-(2,6-dioxopiperidin-3-yl)-5-phenylthiophene-3-carboxamide] | < 5 µM | ≤25% (≤25% for 0-25% of IKZF1 protein reduction) | 
CC(C)(C)OC(=O)Nc1ncc(C(=O)NC2CCC(=O)NC2=O)s1 (stereo not shown) [Compound 71, tert-butyl (5-((2,6-dioxopiperidin-3-yl)carbamoyl)thiazol-2-yl)carbamate] | < 5 µM | ≤25% (≤25% for 0-25% of IKZF1 protein reduction) | 
CC(C)(C)c1ncc(C(=O)NC2CCC(=O)NC2=O)s1 (stereo not shown) [Compound 73, 2-(tert-butyl)-N-(2,6-dioxopiperidin-3-yl)thiazole-5-carboxamide] | 10 to 50 µM | ≤25% (≤25% for 0-25% of IKZF1 protein reduction) | 
O=C1CCC(NC(=O)c2cnc(CNC(=O)OCc3ccccc3)s2)C(=O)N1 (stereo not shown) [Compound 74, benzyl ((5-((2,6-dioxopiperidin-3-yl)carbamoyl)thiazol-2-yl)methyl)carbamate] | 10 to 50 µM | ≤25% (≤25% for 0-25% of IKZF1 protein reduction) | 
COc1ncc(C(=O)NC2CCC(=O)NC2=O)s1 (stereo not shown) [Compound 75, N-(2,6-dioxopiperidin-3-yl)-2-methoxythiazole-5-carboxamide] | 10 to 50 µM | ≤25% (≤25% for 0-25% of IKZF1 protein reduction) | 
CSc1ncc(C(=O)NC2CCC(=O)NC2=O)s1 (stereo not shown) [Compound 76, N-(2,6-dioxopiperidin-3-yl)-2-(methylthio)thiazole-5-carboxamide] | 10 to 50 µM | ≤25% (≤25% for 0-25% of IKZF1 protein reduction) | 
O=C1CCC(NC(=O)c2sc(Cl)c3cccnc23)C(=O)N1 (stereo not shown) [Compound 106, 5-chloro-N-(2,6-dioxopiperidin-3-yl)thieno[3,4-b]pyridine-7-carboxamide] | < 5 µM | ≤25% (≤25% for 0-25% of IKZF1 protein reduction) | % of IKZF3 protein reduction, based on densitometry values ([1]; 1 μM): ≤25% (≤25% for 0-25% of IKZF3 protein reduction); % of IKZF3 protein reduction, based on densitometry values ([1]; 10 μM): ≤25% (≤25% for 0-25% of IKZF3 protein reduction); % of IKZF1 protein reduction, based on densitometry values ([3]; 1 μM): ≤25% (≤25% for 0-25% of IKZF1 protein reduction); % of IKZF1 protein reduction, based on densitometry values ([3]; 10 μM): ≤25% (≤25% for 0-25% of IKZF1 protein reduction)
O=C1CCC(NC(=O)c2scc3cccnc23)C(=O)N1 (stereo not shown) [Compound 107, N-(2,6-dioxopiperidin-3-yl)thieno[3,4-b]pyridine-7-carboxamide] | < 5 µM |  | % of IKZF3 protein reduction, based on densitometry values ([1]; 1 μM): ≤25% (≤25% for 0-25% of IKZF3 protein reduction); % of IKZF3 protein reduction, based on densitometry values ([1]; 10 μM): ≤25% (≤25% for 0-25% of IKZF3 protein reduction); % of IKZF1 protein reduction, based on densitometry values ([3]; 1 μM): ≤25% (≤25% for 0-25% of IKZF1 protein reduction); % of IKZF1 protein reduction, based on densitometry values ([3]; 10 μM): ≤25% (≤25% for 0-25% of IKZF1 protein reduction)
COCc1ncc(C(=O)NC2CCC(=O)NC2=O)s1 (stereo not shown) [Compound 111, N-(2,6-dioxopiperidin-3-yl)-2-(methoxymethyl)thiazole-5-carboxamide] | 10 to 50 µM | ≤25% (≤25% for 0-25% of IKZF1 protein reduction) | % of IKZF3 protein reduction, based on densitometry values ([1]; 1 μM): ≤25% (≤25% for 0-25% of IKZF3 protein reduction); % of IKZF3 protein reduction, based on densitometry values ([1]; 10 μM): ≤25% (≤25% for 0-25% of IKZF3 protein reduction); % of IKZF1 protein reduction, based on densitometry values ([3]; 1 μM): ≤25% (≤25% for 0-25% of IKZF1 protein reduction); % of IKZF1 protein reduction, based on densitometry values ([3]; 10 μM): ≤25% (≤25% for 0-25% of IKZF1 protein reduction)
